Reference: patent US20170073337A1, “DIHYDROTHIAZINE AND DIHYDROOXAZINE DERIVATIVES HAVING BACE1 INHIBITORY ACTIVITY” (Shionogi & Co., Ltd., priority 2014, published 2017)
Values after ≈ are worked out from the molar mass of the structure shown. Where two headings read alike, the source gives them in different places.

How the values were obtained:
Recombinant human BACE1 = biological target: T1, Recombinant human BACE1 (Homo sapiens, UniProt P56817); experiment: Assay of BACE1 inhibitory activity: 96-well; type: biochemical; settings: Assay format 96-well
T1 construct: purchased R&D Systems
Description: 48.5 μL of substrate peptide solution (Biotin-XSEVNLDAEFRHDSGC-Eu: X=ε-amino-n-capronic acid. Eu=Europium cryplate) was added to each well of 96-hole half-area plate (a black plate: Costar), and after addition of 0.5 μl of the compound of the present invention (DMSO solution) and 1 μl of Recombinant human BACE1(R&D Systems), the reaction mixture was incubated at 30° C. for 3.5 hours. The substrate peptide was synthesized by reacting Cryptate TBPCOOH mono SMP (CIS bio international) with Biotin-XSEVNLDAEFRHDSGC (Peptide Institute, Inc.).
After the incubation for reaction, 50 μl of 8.0 μg/ml Streptavidin-XL665 (CIS bio international) dissolved in phosphate buffer (150 mmol/L […]—KH2PO4, pH 7.0, 0.008% Triton X-100, 0.8 mol/L KF) was added to each well and left stand at 30° C. for 45 minutes.

[1] = biological target: T2, human ether-a-go-go related gene (hERG) channel (Homo sapiens, UniProt Q12809); experiment: hERG test; type: cell-based; settings: % inhibition of IKr tail peak current at 3 uM; CHO cells expressing hERG
T2 construct: expressed in transfected cells; host or cells: CHO cells
In short: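 IKr was recorded from hERG-expressing CHO cells by automated whole-cell patch clamp at a holding potential of −80 mV. A −50 mV leak step was followed by a 2 s depolarization to +20 mV and a 2 s repolarization to −50 mV, when current was measured.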

[2] = system: Aβ production in neuroblastoma SH-SY5Y cells (SH/APPwt); experiment: β-amyloid (Aβ) production inhibitory effect in cell: 96-well; type: cell-based; settings: Homo sapiens, Assay format 96-well
Description: Neuroblastoma SH-SY5V cells (SH/APPwt) with human wild-type R-APP excessively expressed therein were prepared at 8×10^5 cells/mL, and 150 μl portions thereof were inoculated into each well of a 96-well culture plate (Falcon). The cells were cultured for 2 hours at […]. in a 5% gaseous carbon dioxide incubator. […] Namely, the final DMSO concentration was 1%, and the amount of the cell culture was 200 μl. After the incubation was performed for 24 hours from the addition of the test compound, 100 μl of the culture supernatant was collected from each fraction. The amount of the Aβ in each fraction was measured. The Aβ amount was measured as follows. 10 μl of a homogeneous time resolved fluorescence (HTRF) measurement reagent (Amyloid β1-40 peptide: CIS bio international) and 10 μof the culture supernatant were put into a 384-well half area microplate (black microplate, Costar) and mixed with each other, and then left standing overnight at 4° C. while the light was shielded.

CYP3A4 = biological target: T3, CYP3A4 (Homo sapiens, UniProt P08684); experiment: CYP inhibition test (CYP3A4); type: in vitro ADME; settings: pooled human liver microsomes; terfenadine hydroxylation
T3 construct: The commercially available pooled human liver microsomes are used as an enzyme resource; from tissue; host or cells: pooled human liver microsomes
In short: (§1)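 Pooled human liver microsomes (0.2 mg protein/mL) with compound at 1, 5, 10 and 20 μmol/L and NADPH, at 37 °C. Marker substrates: dextromethorphan 5 μmol/L (2D6), terfenadine 1 μmol/L (3A4), S-mephenytoin 50 μmol/L (2C19), tolbutamide 100 μmol/L (2C9). Metabolites were measured by LC/MS/MS, and IC50 was derived by logistic fit of remaining activity against the DMSO control.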

Solubility test = type: physicochemical; settings: kinetic from dmso stock; for solubility kinetic at 16 h: 25 °C
In short: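 Dissolved concentration determined by LC/MS or SPE/MS (absolute calibration) in diluted filtrates, after 2 μL of 10 mmol/L DMSO stock was added to 198 μL JP 1st or JP 2nd fluid and equilibrated either 1 h with shaking at room temperature or 16 h standing at 25 °C.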

CYP2C9 = biological target: T4, CYP2C9 (Homo sapiens, UniProt P11712); experiment: CYP inhibition test (CYP2C9); type: in vitro ADME; settings: pooled human liver microsomes; tolbutamide methyl-hydroxylation
T4 construct: The commercially available pooled human liver microsomes are used as an enzyme resource; from tissue; host or cells: pooled human liver microsomes
In short: as §1

CYP2C19 = biological target: T5, CYP2C19 (Homo sapiens, UniProt P33261); experiment: CYP inhibition test (CYP2C19); type: in vitro ADME; settings: pooled human liver microsomes; mephenytoin 4′-hydroxylation
T5 construct: The commercially available pooled human liver microsomes are used as an enzyme resource; from tissue; host or cells: pooled human liver microsomes
In short: as §1

CYP1A2 = biological target: T6, CYP1A2 (Homo sapiens, UniProt P05177); experiment: CYP inhibition test (CYP1A2); type: in vitro ADME; settings: pooled human liver microsomes; 7-ethoxyresorufin O-deethylation
T6 construct: The commercially available pooled human liver microsomes are used as an enzyme resource; from tissue; host or cells: pooled human liver microsomes
T6 sequence (P05177 1-516): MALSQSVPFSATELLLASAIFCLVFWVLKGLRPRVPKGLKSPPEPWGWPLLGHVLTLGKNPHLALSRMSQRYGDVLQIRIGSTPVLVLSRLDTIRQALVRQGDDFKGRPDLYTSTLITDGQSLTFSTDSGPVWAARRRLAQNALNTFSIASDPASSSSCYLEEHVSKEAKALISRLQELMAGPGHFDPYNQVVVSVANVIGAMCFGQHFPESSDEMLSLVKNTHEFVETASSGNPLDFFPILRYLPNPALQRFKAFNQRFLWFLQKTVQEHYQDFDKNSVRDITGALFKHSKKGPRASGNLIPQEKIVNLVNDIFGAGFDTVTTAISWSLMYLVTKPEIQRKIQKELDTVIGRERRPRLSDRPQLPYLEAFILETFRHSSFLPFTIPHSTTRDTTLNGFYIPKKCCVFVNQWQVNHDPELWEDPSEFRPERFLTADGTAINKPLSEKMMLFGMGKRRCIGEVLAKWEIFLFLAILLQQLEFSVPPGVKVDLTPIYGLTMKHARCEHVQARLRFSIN
In short: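 Inhibition of CYP1A2 was measured in commercially available pooled human liver microsomes (0.2 mg protein/mL) using 7-ethoxyresorufin O-deethylation with 0.5 μmol/L ethoxyresorufin. Test compound at 1, 5, 10, 20 μmol/L in […] Hepes buffer was incubated at 37° C. after NADPH addition; methanol/acetonitrile=1/1 (v/v) stopped the reaction, and resorufin was read fluorescently.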

CYP2D6 = biological target: T7, CYP2D6 (Homo sapiens, UniProt P10635); experiment: CYP inhibition test (CYP2D6); type: in vitro ADME; settings: pooled human liver microsomes; dextromethorphan O-demethylation
T7 construct: The commercially available pooled human liver microsomes are used as an enzyme resource; from tissue; host or cells: pooled human liver microsomes
From the text: The CYP inhibition test is a test to assess the inhibitory effect of a compound of the present invention towards typical substrate metabolism reactions on CYP enzymes in human liver microsomes. The marker reactions on human main five CYP enzymes (CYP1A2, 2C9, 2C19, 2D6, and 3A4) are used as follows: 7-ethoxyresorufin O-deethylation (CYP1A2), tolbutamide methyl-hydroxylation (CYP2C9), mephenytoin 4′-hydroxylation (CYP2C19), dextromethorphan O-demethylation (CYP2D6), and terfenadine hydroxylation (CYP3A4). The commercially available pooled human liver microsomes are used as an enzyme resource.
The reaction conditions were as follows: substrate, 0.5 μmol/L ethoxyresorufin (CYP1A2), 100 μmol/L tolbutamide (CYP2C9), 50 μmol/L, S-mephenytoin (CYP2C19), 5 μmol/L dextromethorphan (CYP2D6), 1 μmol/L terfenadine (CYP3A4): reaction time, 15 minutes: reaction temperature, 37° C.; enzyme, pooled human liver microsomes 0.2 mg protein/mL; concentrations of the compound of the present invention, 1, 5, 10, 20 μmol/L (four points).
Five kinds of substrates, human liver microsomes, and a compound solution of the present invention in […] Hepes buffer were added to a 96-well plate at the composition as described above as a reaction solution. NADPH as a cofactor was added to this 96-well plate in order to initiate metabolism reactions. After the incubation at 37° C.for […], a methanol/acetonitrile=1/1 (v/v) solution was added to stop the reaction. After the centrifugation at 3000 rpm for 15 minutes, resorufin (CYP1A2 metabolite) in the supernatant was quantified by a fluorescent plate reader, and hydroxytolbutamide (CYP2C9 metabolite), 4′-hydroxymephenytoin (CYP2C19 metabolite), dextrorphan (CYP2D6 metabolite), and terfenadine alcohol metabolite (CYP3A4 metabolite) in the supernatant were quantified by LC/MS/MS.
The sample adding DMSO to a reaction system instead of compound of the present invention solution was adopted as a control (100%) because DMSO was used as a solvent to dissolve a compound of the present invention. Remaining activity (%) was calculated at each concentration of a compound of the present invention, and IC50 value was calculated by reverse presumption by a logistic model using a concentration and an inhibition rate.

Metabolic stability test = type: in vitro ADME; settings: human liver microsomes, 37° C., 30 minutes, NADPH
In short: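 Parent compound was measured by LC/MS/MS or SPE/MS after a methanol/acetonitrile quench and reported as % remaining, with the 0 min sample set to 100%. Incubations ran 30 min at 37 °C in pH 7.4 Tris buffer containing pooled human liver microsomes at 0.5 mg protein/mL and 1 mmol/L NADPH.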

[3] = JP 1st fluid, pH 1.2, simulated gastric fluid, read-out: JP1
[4] = JP 2nd fluid A, pH 6.8, aqueous buffer, read-out: JP2_μM

T4 sequence (P11712 whole entry): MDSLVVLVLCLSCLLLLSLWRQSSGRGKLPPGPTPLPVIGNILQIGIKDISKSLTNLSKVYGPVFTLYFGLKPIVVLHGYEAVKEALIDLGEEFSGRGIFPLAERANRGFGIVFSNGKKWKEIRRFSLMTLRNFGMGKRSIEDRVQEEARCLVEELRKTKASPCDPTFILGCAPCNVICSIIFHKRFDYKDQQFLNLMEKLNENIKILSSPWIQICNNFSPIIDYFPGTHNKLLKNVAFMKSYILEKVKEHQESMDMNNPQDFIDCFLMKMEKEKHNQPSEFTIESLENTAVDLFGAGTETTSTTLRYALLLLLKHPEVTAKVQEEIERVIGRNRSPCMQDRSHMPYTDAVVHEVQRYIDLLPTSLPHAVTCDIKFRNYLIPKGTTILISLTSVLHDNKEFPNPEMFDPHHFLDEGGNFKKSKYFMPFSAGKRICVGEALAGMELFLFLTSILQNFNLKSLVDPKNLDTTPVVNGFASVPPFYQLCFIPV
T7 sequence (P10635 whole entry): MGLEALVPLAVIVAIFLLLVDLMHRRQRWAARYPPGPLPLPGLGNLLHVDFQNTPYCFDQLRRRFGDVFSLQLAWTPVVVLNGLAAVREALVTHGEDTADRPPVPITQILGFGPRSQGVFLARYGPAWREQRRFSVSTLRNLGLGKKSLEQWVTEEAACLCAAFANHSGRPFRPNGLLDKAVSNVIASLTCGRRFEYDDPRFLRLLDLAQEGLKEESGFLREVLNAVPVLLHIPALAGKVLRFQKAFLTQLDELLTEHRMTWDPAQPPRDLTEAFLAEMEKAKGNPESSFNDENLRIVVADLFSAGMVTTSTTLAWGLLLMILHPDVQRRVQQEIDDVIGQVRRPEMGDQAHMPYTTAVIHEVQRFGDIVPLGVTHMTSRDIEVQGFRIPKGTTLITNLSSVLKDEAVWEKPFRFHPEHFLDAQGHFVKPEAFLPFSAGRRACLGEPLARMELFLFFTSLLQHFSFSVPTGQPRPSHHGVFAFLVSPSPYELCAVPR
T2 sequence (Q12809 whole entry): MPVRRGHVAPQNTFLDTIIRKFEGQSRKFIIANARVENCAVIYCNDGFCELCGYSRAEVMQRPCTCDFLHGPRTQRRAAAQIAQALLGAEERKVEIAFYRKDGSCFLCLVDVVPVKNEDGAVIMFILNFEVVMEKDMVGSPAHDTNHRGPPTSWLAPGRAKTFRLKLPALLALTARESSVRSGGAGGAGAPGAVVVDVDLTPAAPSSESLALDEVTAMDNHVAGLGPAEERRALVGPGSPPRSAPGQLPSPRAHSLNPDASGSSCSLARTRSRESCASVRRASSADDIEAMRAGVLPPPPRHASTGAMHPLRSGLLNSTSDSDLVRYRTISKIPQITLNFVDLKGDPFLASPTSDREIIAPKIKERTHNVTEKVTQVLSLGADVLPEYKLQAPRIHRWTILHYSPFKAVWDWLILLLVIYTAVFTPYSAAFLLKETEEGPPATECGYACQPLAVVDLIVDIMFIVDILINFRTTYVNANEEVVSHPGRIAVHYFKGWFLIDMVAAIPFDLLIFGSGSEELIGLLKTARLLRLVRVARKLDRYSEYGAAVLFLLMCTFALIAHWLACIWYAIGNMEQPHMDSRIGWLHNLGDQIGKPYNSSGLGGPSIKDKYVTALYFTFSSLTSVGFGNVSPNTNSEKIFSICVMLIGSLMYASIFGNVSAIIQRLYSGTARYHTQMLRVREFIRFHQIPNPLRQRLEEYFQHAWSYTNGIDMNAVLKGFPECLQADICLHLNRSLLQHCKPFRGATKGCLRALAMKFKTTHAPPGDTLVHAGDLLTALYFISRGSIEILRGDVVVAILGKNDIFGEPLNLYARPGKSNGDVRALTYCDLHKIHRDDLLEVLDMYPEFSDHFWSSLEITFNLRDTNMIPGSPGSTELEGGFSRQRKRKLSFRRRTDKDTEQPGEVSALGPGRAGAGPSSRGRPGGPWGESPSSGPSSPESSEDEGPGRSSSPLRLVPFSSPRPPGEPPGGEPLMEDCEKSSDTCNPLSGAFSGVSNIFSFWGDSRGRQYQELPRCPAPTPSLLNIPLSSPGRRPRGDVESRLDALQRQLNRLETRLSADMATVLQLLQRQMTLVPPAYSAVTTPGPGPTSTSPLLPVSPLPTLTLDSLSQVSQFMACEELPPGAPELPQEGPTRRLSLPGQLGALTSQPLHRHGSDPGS
T1 sequence (P56817 46-501): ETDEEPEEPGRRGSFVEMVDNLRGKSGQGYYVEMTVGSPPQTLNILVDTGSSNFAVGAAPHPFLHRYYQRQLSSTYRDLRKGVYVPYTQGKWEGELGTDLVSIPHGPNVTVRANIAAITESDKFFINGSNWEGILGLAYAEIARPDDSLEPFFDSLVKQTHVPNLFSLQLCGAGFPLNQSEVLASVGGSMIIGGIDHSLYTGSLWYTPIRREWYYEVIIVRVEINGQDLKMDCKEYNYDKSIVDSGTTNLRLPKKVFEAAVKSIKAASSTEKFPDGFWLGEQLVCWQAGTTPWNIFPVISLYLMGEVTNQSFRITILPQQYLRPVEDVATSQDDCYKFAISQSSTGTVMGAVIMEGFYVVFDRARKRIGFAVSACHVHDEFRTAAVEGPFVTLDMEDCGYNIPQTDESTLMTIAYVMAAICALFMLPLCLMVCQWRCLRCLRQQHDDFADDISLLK
T5 sequence (P33261 whole entry): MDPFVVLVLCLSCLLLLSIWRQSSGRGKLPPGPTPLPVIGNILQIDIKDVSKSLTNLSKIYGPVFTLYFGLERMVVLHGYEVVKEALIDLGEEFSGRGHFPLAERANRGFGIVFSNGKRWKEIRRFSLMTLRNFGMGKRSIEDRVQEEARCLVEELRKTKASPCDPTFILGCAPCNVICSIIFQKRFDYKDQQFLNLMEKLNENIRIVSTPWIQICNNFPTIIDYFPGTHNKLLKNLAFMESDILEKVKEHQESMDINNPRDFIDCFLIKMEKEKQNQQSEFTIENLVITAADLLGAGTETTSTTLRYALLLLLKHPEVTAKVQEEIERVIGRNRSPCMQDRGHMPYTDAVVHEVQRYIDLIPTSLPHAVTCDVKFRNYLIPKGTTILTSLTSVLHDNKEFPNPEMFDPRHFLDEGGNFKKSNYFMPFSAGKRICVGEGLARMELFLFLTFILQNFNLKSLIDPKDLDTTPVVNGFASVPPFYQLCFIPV
T3 sequence (P08684 whole entry): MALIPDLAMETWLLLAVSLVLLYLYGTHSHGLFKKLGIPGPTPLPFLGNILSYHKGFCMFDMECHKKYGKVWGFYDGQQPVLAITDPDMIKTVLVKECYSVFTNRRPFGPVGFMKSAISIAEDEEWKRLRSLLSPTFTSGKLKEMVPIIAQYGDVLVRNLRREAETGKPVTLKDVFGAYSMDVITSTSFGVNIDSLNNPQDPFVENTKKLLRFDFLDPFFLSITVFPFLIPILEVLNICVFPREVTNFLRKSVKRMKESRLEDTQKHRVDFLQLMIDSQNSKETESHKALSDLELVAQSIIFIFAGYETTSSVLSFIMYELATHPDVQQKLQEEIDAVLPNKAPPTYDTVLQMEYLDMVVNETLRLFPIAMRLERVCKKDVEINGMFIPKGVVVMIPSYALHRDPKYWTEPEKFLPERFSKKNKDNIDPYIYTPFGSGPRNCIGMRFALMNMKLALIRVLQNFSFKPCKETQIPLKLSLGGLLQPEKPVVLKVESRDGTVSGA

Row | SMILES | IC50 (Recombinant human BACE1) [nM] | hERG_3 uM_% [1] [%] | IC50 [2] [nM] | IC50 (CYP3A4) [µM] | solubility kinetic at 16 h (Solubility test; [3]) [µM] | solubility kinetic at 16 h (Solubility test; [4]) [µM] | IC50 (CYP2C9) [µM] | IC50 (CYP2C19) [µM] | IC50 (CYP1A2) [µM] | IC50 (CYP2D6) [µM] | remaining % (Metabolic stability test) [%] | solubility kinetic at 1 h (Solubility test; [3]) [µM] | solubility kinetic at 1 h (Solubility test; [4]) [µM]
1 | C[C@]1(c2nc(NC(=O)c3cnc(OCF)cn3)ccc2F)N=C(N)S[C@H](CF)[C@@H]1F [Compound I-5] | 29.9 | 27.7 | 2.88 | ≥ 20 | 34.3 (≈ 15.2 µg/mL) | > 50 | ≥ 10 | ≥ 20 | ≥ 20 | – | – | – | –
2 | C[C@]1(c2nc(NC(=O)c3ccc(Cl)cn3)ccc2F)N=C(N)S[C@H](CF)[C@@H]1F [Compound I-6] | 15 | – | 1.29 | ≥ 20 | – | – | – | ≥ 10 | ≥ 20 | – | – | – | –
3 | CO[C@H]1[C@@H](CF)OC(N)=N[C@]1(C)c1cc(NC(=O)c2ccc(Cl)cn2)ccc1Cl [Compound I-21] | – | 51.1 | 2.93 | ≥ 20 | 28.8 (≈ 12.7 µg/mL) | > 50 | ≥ 20 | ≥ 20 | ≥ 20 | – | – | – | –
4 | CO[C@H]1[C@@H](CF)OC(N)=N[C@]1(C)c1cc(NC(=O)c2ncc(Cl)cc2Cl)ccc1Cl [Compound I-22] | 23 | 14.2 | 4.22 | ≥ 20 | 31.2 (≈ 14.8 µg/mL) | > 50 | ≥ 20 | ≥ 20 | ≥ 20 | ≥ 10 | – | – | –
5 | CO[C@H]1[C@@H](CF)OC(N)=N[C@]1(C)c1cc(NC(=O)c2ccc(Cl)cn2)ccc1F [Compound I-23] | 34.4 | – | 1.53 | ≥ 20 | 46.7 (≈ 19.8 µg/mL) | > 50 | ≥ 20 | ≥ 20 | ≥ 20 | ≥ 20 | 86.6 | – | –
6 | CO[C@H]1[C@@H](CF)OC(N)=N[C@]1(C)c1cc(NC(=O)c2ncc(Cl)cc2Cl)ccc1F [Compound I-26] | 33.9 | 29.6 | 1.76 | ≥ 20 | 41.9 (≈ 19.2 µg/mL) | > 50 | ≥ 20 | ≥ 20 | – | ≥ 20 | 76 | – | –
7 | CO[C@H]1[C@@H](C(F)(F)F)OC(N)=N[C@]1(C)c1cc(NC(=O)c2ccc(C#N)cn2)ccc1F [Compound I-34] | 16.5 | 15.5 | 1.85 | ≥ 20 | 44.4 (≈ 20 µg/mL) | > 50 | ≥ 20 | ≥ 20 | ≥ 20 | ≥ 20 | – | – | –
8 | COc1cnc(C(=O)Nc2ccc(F)c([C@@]3(C)N=C(N)O[C@H]4[C@@H]3OCC4(F)F)c2)cn1 [Compound I-36] | 22 | 29.9 | 2.29 | ≥ 20 | – | – | ≥ 20 | ≥ 20 | ≥ 20 | ≥ 20 | – | 37.6 (≈ 16.4 µg/mL) | 15.9 (≈ 6.95 µg/mL)
9 | C[C@]1(c2cc(NC(=O)c3ccc(C#N)cn3)ccc2F)N=C(N)OCC12CC(F)(F)C2 [Compound I-43] | 21.8 | – | 0.615 | ≥ 20 | 29.9 (≈ 12.8 µg/mL) | > 50 | ≥ 20 | ≥ 20 | ≥ 20 | ≥ 20 | 84.5 | – | –
